± gives the expanded uncertainty stated by the source.
Legend:
[1] = 101 kPa, Liquid
[2] = xn = mol fraction of the nth substance listed; details: 101 kPa, Liquid, x1 = 1

| SMILES | kinematic viscosity ([1]; 298.15 K) [m2/s] | mass density ([1]; 298.15 K) [kg/m3] | kinematic viscosity ([1]; 303.15 K) [m2/s] | mass density ([1]; 303.15 K) [kg/m3] | kinematic viscosity ([1]; 308.15 K) [m2/s] | mass density ([1]; 308.15 K) [kg/m3] | kinematic viscosity ([1]; 313.15 K) [m2/s] | mass density ([1]; 313.15 K) [kg/m3] | kinematic viscosity ([1]; 318.15 K) [m2/s] | mass density ([1]; 318.15 K) [kg/m3] | kinematic viscosity ([2]; 298.15 K) [m2/s] | mass density ([2]; 298.15 K) [kg/m3] | kinematic viscosity ([2]; 303.15 K) [m2/s] | mass density ([2]; 303.15 K) [kg/m3] | kinematic viscosity ([2]; 308.15 K) [m2/s] | mass density ([2]; 308.15 K) [kg/m3] | kinematic viscosity ([2]; 313.15 K) [m2/s] | mass density ([2]; 313.15 K) [kg/m3] | kinematic viscosity ([2]; 318.15 K) [m2/s] | mass density ([2]; 318.15 K) [kg/m3] |
| --- | --- | --- | --- | --- | --- | --- | --- | --- | --- | --- | --- | --- | --- | --- | --- | --- | --- | --- | --- | --- |
| OCCOCCO [diethylene glycol] | 2.76e-05 ± 1.2e-06 | 1113 ± 2.9 | 2.13e-05 ± 9e-07 | 1109.2 ± 3 | 1.68e-05 ± 7e-07 | 1106.1 ± 3.1 | 1.45e-05 ± 6e-07 | 1103 ± 3.2 | 1.12e-05 ± 5e-07 | 1099.3 ± 3.3 |  |  |  |  |  |  |  |  |  |  |
| CN(C)C=O [dimethylformamide] | 8.15e-07 ± 5.2e-08 | 943.9 ± 2.4 | 7.6e-07 ± 4.9e-08 | 939.6 ± 2.5 | 7.22e-07 ± 4.7e-08 | 934.2 ± 2.6 | 6.75e-07 ± 4.4e-08 | 929.9 ± 2.7 | 6.38e-07 ± 4.2e-08 | 924.7 ± 2.8 |  |  |  |  |  |  |  |  |  |  |
| CN(C)C=O [dimethylformamide] + OCCOCCO |  |  |  |  |  |  |  |  |  |  | 8.15e-07 ± 5.2e-08 | 943.9 ± 2.4 | 7.6e-07 ± 4.9e-08 | 939.6 ± 2.5 | 7.22e-07 ± 4.7e-08 | 934.2 ± 2.6 | 6.75e-07 ± 4.4e-08 | 929.9 ± 2.7 | 6.38e-07 ± 4.2e-08 | 924.7 ± 2.8 |

Source: the NIST ThermoML archive (doi:10.1016/j.fluid.2014.04.019)
